Assay results from PMC11008251, “Distribution of 2,2′,5,5′-Tetrachlorobiphenyl (PCB52) Metabolites in Adolescent Rats after Acute Nose-Only Inhalation Exposure” (Environmental Science & Technology, 2024).
Read-outs that look alike come from different tables or passages of the source.

Key:
[1] = PCB52 and monohydroxylated metabolite tissue levels by GC-MS/MS after 4 h nose-only inhalation; format: in vivo, Sprague–Dawley rats; settings: Sprague-Dawley, rat, inhaled
Description: PCB52 vapor for the animal exposure was generated using a published protocol.[12] Briefly, 450 g of 3 mm diameter glass beads were added to a solution of 1.5 g of PCB52 in dichloromethane. The glass beads were then coated with PCB52 by evaporating dichloromethane in a water bath at 29 °C using a rotary evaporator (Buchi Rotavapor R-200, New Castle, DE) under reduced pressure. For the animal exposures, high-efficiency particulate air (HEPA)-filtered laboratory air was passed through the PCB52-coated glass beads at a flow rate of 12 L/min to expose animals to PCB52 vapor in a nose-only exposure apparatus (Figure 1A). The flask of PCB52-coated beads and mixing chamber were kept at 25.0 °C using a precision water bath to facilitate the volatilization of PCB52. The PCB52-laden air was passed through a mixing chamber and distributed to the nose-only inhalation apparatus at a flow rate of 4 L/min per tower (n = 3) and a sampling cartridge filled with 10 g of Amberlite XAD-2 polymeric absorbent resin (Sigma-Aldrich, St. Louis, MO) at a flow rate of 2 L/min. The specified flow rates were generated using flow meter-regulated pumps. The XAD-2 cartridge was used to capture PCB52 vapor to characterize the exposure atmosphere. A sham exposure group was exposed in parallel to HEPA-filtered clean air in an identical nose-only exposure system in an adjacent lab with no supplied PCB52.
The Institutional Animal Care and Use Committee of the University of Iowa approved all of the animal protocols. Animals were housed in a temperature- and humidity-controlled room (21 °C, 55% relative humidity) with a 12 h light/dark cycle in an Association for the Assessment and Accreditation of Laboratory Animal Care (AAALAC) accredited animal facility. Animals were provided with food (sterile Teklad 5% stock diet, Harlan, Madison, WI) and water ad libitum throughout the study. Thirty-six male and female Sprague–Dawley rats (7 weeks of age; Charles River, Wilmington, MA) were allowed to acclimate to the animal facility for 8 days after arrival. Prior to exposure, rats (227 ± 27 and 197 ± 13 g, male and female, respectively) were randomly assigned to the exposure groups (n = 6 per group) using a random number generated (Excel, version 2307). Animals were simultaneously exposed for 4 h to a low or high concentration of PCB52-laden per sex) or filtered lab air (Figure 1A). Exposure duration was limited to 4 h along with scheduled training days (30 min at 55 days of age and 2 h at 56 days of age) to acclimate animals and minimize stress. […] Animal exposure occurred for 4 h at 57 days of age. Rats are considered adolescents at this age.[38] Serum was collected immediately after the animals were removed from the nose-only apparatus by cardiac puncture under isoflurane anesthesia. Rats were perfused with saline, and organs were excised and stored at −80 °C. Body and organ weights, including brain, lungs, and thymus, were not altered by PCB52 inhalation regardless of sex or exposure (Tables S2 and S3).
PCB52 and its hydroxylated metabolites were extracted from tissues, serum, and cecum and intestinal content using a published protocol;[40],[41] see the Supporting Information. Briefly, PCB52 and its metabolites were extracted from homogenates by liquid–liquid extraction and cleaned by solid-phase extraction with acidified silica gel. PCB52 and metabolites were quantified in the multiple reaction monitoring setting (MRM) on an Agilent 7890 A GC system equipped with an Agilent 7000 Triple Quad and Agilent 7693 autosampler (Agilent Technologies, Santa Clara, CA); see the Supporting Information.
PCB52 and metabolite levels, adjusted for tissue wet weight, are reported as the mean ± standard deviation. Differences in PCB52 and metabolite levels from the GC-MS/MS analysis were analyzed with the Tobit regression model because some measurements are below the detection limit. […]

[2] = set-up: method as in PMID 36804509; settings: 3 weeks after intraperitoneal administration of PCB52 100 mg/kg bw; cited from earlier work
[3] = set-up: method as in PMID 23582014; settings: male rats exposed acutely to PCB11 vapors; cited from earlier work
[4] = set-up: method as in PMID 24275706; settings: cited from earlier work

For `Oc1cc(Cl)c(-c2cc(Cl)ccc2Cl)cc1Cl` [4-OH-PCB52, 2,2′,5,5′-Tetrachlorobiphenyl-4-ol], the concentration at 4 h ([1]; both sexes, brain, irrespective of sex and exposure group, GC-MS/MS, read-out: level in the brain (below the detection limit)) was < 0.16 ng/g, the concentration at 4 h ([1]; female, adipose, female, high dose, mean, read-out: PCB or metabolite detected level, Adipose) was 0.2 ng/g and the concentration at 4 h ([1]; female, cecum, female, high dose, mean, read-out: PCB or metabolite detected level, Cecum) was 3 ng/g. The concentration at 4 h ([1]; female, cecum, female, low dose, mean, read-out: PCB or metabolite detected level, Cecum) was 2 ng/g, the concentration at 4 h ([1]; female, intestinal content, female, high dose, mean, read-out: PCB or metabolite detected level, Intestinal content) was 5 ng/g and the concentration at 4 h ([1]; female, intestinal content, female, low dose, mean, read-out: PCB or metabolite detected level, Intestinal content) was 4 ng/g. The concentration at 4 h ([1]; female, liver, female, high dose, mean, read-out: PCB or metabolite detected level, Liver) was 0.2 ng/g, the concentration at 4 h ([1]; female, liver, female, low dose, mean, read-out: PCB or metabolite detected level, Liver) was 0.2 ng/g and the concentration at 4 h ([1]; female, lung, female, high dose, mean, read-out: PCB or metabolite detected level, Lung) was 0.2 ng/g. It also gave a concentration at 4 h ([1]; female, lung, female, low dose, mean, read-out: PCB or metabolite detected level, Lung) of 0.1 ng/g, a concentration at 4 h ([1]; female, serum, female, high dose, mean, read-out: PCB or metabolite detected level, Serum) of 0.1 ng/g and a concentration at 4 h ([1]; female, serum, female, low dose, mean, read-out: PCB or metabolite detected level, Serum) of 0.4 ng/g. For the same molecule, the concentration at 4 h ([1]; male, adipose, male, high dose, mean, read-out: PCB or metabolite detected level, Adipose) was 0.2 ng/g, the concentration at 4 h ([1]; male, cecum, male, high dose, mean, read-out: PCB or metabolite detected level, Cecum) was 2 ng/g and the concentration at 4 h ([1]; male, cecum, male, low dose, mean, read-out: PCB or metabolite detected level, Cecum) was 1 ng/g. The concentration at 4 h ([1]; male, intestinal content, male, high dose, mean, read-out: PCB or metabolite detected level, Intestinal content) was 0.4 ng/g, the concentration at 4 h ([1]; male, liver, male, high dose, mean, read-out: PCB or metabolite detected level, Liver) was 0.3 ng/g and the concentration at 4 h ([1]; male, liver, male, low dose, mean, read-out: PCB or metabolite detected level, Liver) was 0.1 ng/g. The concentration at 4 h ([1]; male, lung, male, high dose, mean, read-out: PCB or metabolite detected level, Lung) was 0.2 ng/g, the concentration at 4 h ([1]; male, lung, male, low dose, mean, read-out: PCB or metabolite detected level, Lung) was 0.1 ng/g and the concentration at 4 h ([1]; male, serum, male, high dose, mean, read-out: PCB or metabolite detected level, Serum) was 0.4 ng/g. The concentration at 4 h ([1]; male, serum, male, low dose, mean, read-out: PCB or metabolite detected level, Serum) was 0.4 ng/g and the “detection frequency in the rat brain” value [2] was 20%.
In the case of `Clc1cccc(-c2cccc(Cl)c2)c1` [PCB11, 3,3′-dichlorobiphenyl], the “rank order of tissue levels” value [3] is listed as “lung > serum > liver”, the “time to radioactivity in the systemic circulation” value ([4]; intratracheally instilled 14C-labeled PCB11) is listed as ≤ 12 min and the “time of highest levels of extractable PCB11 metabolites in the jejunum and ileum” value ([4]; postexposure) is listed as “approximately 100 min”.
